Results on ten molecules are retold here after patent US20230235378A1, “LZHEIMER'S DISEASE-SPECIFIC ALTERATIONS OF PROTEIN KINASE C EPSILON (PKC-EPSILON PROTEIN LEVELS” (WEST VIRGINIA UNIVERSITY BOARD OF GOVERNORS ON BEHALF OF …, priority 2010, published 2023).

One assay has as its target T1, purified PKC (Homo sapiens, UniProt Q02156).
T1 construct: purchased Calbiochem
T1 sequence (Q02156 1-737): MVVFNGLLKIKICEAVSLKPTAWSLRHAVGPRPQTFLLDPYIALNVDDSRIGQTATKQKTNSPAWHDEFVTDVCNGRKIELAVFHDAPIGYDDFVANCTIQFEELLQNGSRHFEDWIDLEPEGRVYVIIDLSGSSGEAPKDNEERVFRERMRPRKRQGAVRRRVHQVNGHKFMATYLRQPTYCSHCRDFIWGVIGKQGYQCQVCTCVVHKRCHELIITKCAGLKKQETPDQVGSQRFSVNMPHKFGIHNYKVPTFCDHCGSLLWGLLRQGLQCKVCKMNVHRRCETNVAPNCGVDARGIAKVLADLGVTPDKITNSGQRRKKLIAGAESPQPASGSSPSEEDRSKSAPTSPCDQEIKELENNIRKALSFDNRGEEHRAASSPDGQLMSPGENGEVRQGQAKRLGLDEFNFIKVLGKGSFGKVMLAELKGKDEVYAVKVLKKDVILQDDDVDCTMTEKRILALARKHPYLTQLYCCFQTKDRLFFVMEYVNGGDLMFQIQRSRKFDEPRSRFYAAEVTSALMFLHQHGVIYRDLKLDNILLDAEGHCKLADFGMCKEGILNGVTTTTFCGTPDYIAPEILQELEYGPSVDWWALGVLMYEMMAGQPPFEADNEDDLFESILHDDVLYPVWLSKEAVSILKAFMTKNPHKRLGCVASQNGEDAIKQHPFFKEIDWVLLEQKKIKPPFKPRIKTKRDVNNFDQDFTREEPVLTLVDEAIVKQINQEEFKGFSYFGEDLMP
The assay can be described thus: PKC isozyme specificity: purified PKC preincubated with compound, activity measured radiometrically. Format: biochemical. The settings on record: for concentration needed to activate PKC, relative to BR-101 (DCP-LA): compared with BR-101 (DCP-LA); for activation of purified PKC: used as methyl esters. The procedure:
(§1) Protein Kinase C Assay. Rat hippocampal cells were cultured and scraped in 0.2 ml homogenization buffer (20 mM Tris-HCl, pH 7.4, 50 mM NaF, 1 μg/ml leupeptin, and 0.1 mM PMSF) and homogenized by sonication in a Marsonix micro-probe sonicator (5 sec, 10 W). To measure PKC, 10 μl of cell homogenate or purified PKC isozyme (purchased from Calbiochem) was incubated for 15 min at 37° C. in the presence of 10 μM histones, 4.89 mM CaCl2, 1.2 μg/μl phosphatidyl-L-serine, 0.18 μg/μl 1,2-dioctanoyl-sn-glycerol, 10 mM MgCl2, 20 mM HEPES (pH 7.4), 0.8 mM EDTA, 4 mM EGTA, 4% glycerol, 8 μg/ml aprotinin, 8 μg/ml leupeptin, and 2 mM benzamidine. 0.5 μCi [γ-32P]ATP was added and 32P-phosphoprotein formation was measured by adsorption onto phosphocellulose as described previously. Nelson and Alkon, J. Neurochemistry. 1995; 65: 2350-57. For measurements of activation by BR-101 (DCP-LA) and similar compounds, PKC activity was measured in the absence of diacylglycerol and phosphatidylserine, as described by Kanno et al., and PKC δ, ε, η, and were measured in the absence of added EGTA and CaCl2, as described by Kanno et al., J. Lipid Res. 2006; 47: 1146-50. Low concentrations of Ca2+ are used because high Ca2+ interacts with the PKC phosphatidylserine binding site and prevents activation. For measurements of bryostatin activation, 1,2-diacylglycerol was omitted unless otherwise stated.
To determine their PKC isozyme specificity, the new compounds were preincubated with purified PKC for five minutes and the PKC activity was measured radiometrically.

The test system of assay [1] is PKC. The experiment in a line: PKC activity in cultured rat hippocampal H19-7/IGF-IR cells. The class given is cell-based. The settings on record: 8 h; data not shown. The procedure: Cell Culture. Rat hippocampal H19-7/IGF-IR cells (ATCC, Manassas, Va.) were plated onto poly-L-lysine coated plates and grown at 35° C. in DMEM/10% FCS for several days until about 50% coverage was obtained. The cells were then induced to differentiate into a neuronal phenotype by replacing the medium with 5 ml N2 medium containing 10 ng/ml basic fibroblast growth factor at 39° C. and grown in T-75 flasks at 37° C. Human SH-SY5Y neuroblastoma cells (ATCC) were cultured in 45% F 12K/45% MEM/10% FCS. Mouse N2A neuroblastoma cells were cultured in DMEM/10% FCS without glutamine. Rat hippocampal neurons from 18-day-old embryonic
as §1
PKC activators that bind to the diacylglycerol binding site, including bryostatin, gnidimacrin, and phorbol esters, produce a transient activation of PKC activity, followed by a prolonged downregulation. Nelson et al., Trends in Biochem. Sci. 2009; 34: 136-45. This was confirmed in cultured rat hippocampal cells. Incubation of rat 1119-7/IGF-IR cells with (0.04 nM and 0.2 nM) bryostatin produced a 2-fold activation that lasted 30 min, followed by a 20% downregulation that returned to baseline by 24 h (data not shown). […] This sustained activation was only observed in primary neurons.

Assay [2] has as its system PKC. The settings on record: read-out: EC50 (affinity for PKC); cited from earlier work.
For the next assay, the system named is Aß. The following applies: 1 μM, 8 h, cultured COS cells; cited from earlier work.
Another assay concerns PKC-ε. The assay can be described thus: PKC-ε level in skin fibroblasts treated with oligomeric Aß1-42 (western blot). Format: cell-based, human. The procedure:
Immunoblot Analysis: Protein lysates (20 μg of protein each) were boiled in 2× Laemmli buffer for 10 min and separated using a 4-20% gradient Tris-Glycine gels. Separated proteins were transferred to nitrocellulose membrane and the membrane was blocked in BSA at room temperature (RT) for 15 min and incubated with 1:2000 dilution anti-PKC-ε rabbit polyclonal antibody (Santa Cruz Biotechnology, Santa Cruz, Calif.; Cat No: sc-214), and 1:5000 dilution anti-ß-tubulin, class III rabbit monoclonal antibody (Millipore Corporation, Billerica Mass., Cat No: 04-1049) for 1 hr at RT. After the incubation, the membrane fractions were washed 3× with standard western blot washing buffer and further incubated with alkaline phosphatase conjugated secondary antibody (Jackson Immunoresearch Laboratories, USA) at 1:10000 dilution for 45 min. The membrane fractions were finally washed 3× with standard western blot washing buffer and developed using the 1-step NBT-BCIP substrate (Thermo Scientific, Rockford, Ill.). Signal intensities of the images were recorded in the ImageQuant RT-ECL (GE Life Sciences, Piscataway, N.J.) and densitometric quantification was performed using the IMAL software (Blanchette Rockefeller Neurosciences Institute, Morgantown, W. Va.). Intensities quantified in this way, for PKC-ε were normalized against ß-tubulin for each lane.
Preparation of Soluble Oligomeric Aß: Oligomeric Aß was prepared following the method described by Noguchi et al., (2009). Aß generated by this method was reported to be highly neurotoxic, 10-15 nm spherical Aß assemblies termed as amylospheroids (ASPDs). […]
Treatment of skin fibroblasts with oligomeric Aß1-42: Skin fibroblasts both from AD and AC cases were cultured for 7 days to 100% confluence. […] The resulting band intensities for PKC-ε were quantified using ImageQuant RT-ECL (GE Life Sciences, USA) and densitometric analysis was performed using the IMAL software (Blanchette Rockefeller Neurosciences Institute, Morgantown, W. Va.).
(In general: In western blotting, separated proteins are transferred to a membrane and probed.)

Consider `CCCCCC1OC1C/C=C\CCCCCCCC(=O)OC` (stereo in doubt) [BR-117, vernolic acid methyl ester], for which the “effect on PKC” value on purified PKC is “little or no effect”.
As to `CCC1CC1CC1CC1CC1CC1CC1CC1CC1CC1CCCC(=O)OC` (stereo not drawn) [BR-114], at purified PKC, the “concentration needed to activate PKC, relative to BR-101 (DCP-LA)” value is “approx. 100 times lower” and the “activation of purified PKC” value is given as “activated purified PKC to a similar extent”.
For `CCCCCC1CC1CC1CC1CC1CC1CC1CC1CCCC(=O)OC` (stereo not drawn) [BR-115, methyl 4-(2-((2-((2-((pentylcyclopropyl)methyl)cyclopropyl)methyl)cyclopropyl)methyl)cyclopropyl)butanoate methyl ester] the same measures were “approx. 100 times lower” and “activated purified PKC to a similar extent”.
With `CCCCCCCCCCCCCC(=O)O[C@@H]1[C@@H](C)[C@@]2(O)[C@@H](C=C(CO)C[C@]3(O)C(=O)C(C)=C[C@@H]23)[C@@H]2C(C)(C)[C@]12OC(C)=O` [PMA, phorbol 12-myristate 13-acetate], the “downregulation of PKC activity” value in the assay with PKC [1] is “strongly downregulated”. Besides, the EC50 in the assay with PKC [2] is […].
For the molecule `CCCC(=O)O[C@@H]1[C@@H](C)[C@@]2(O)[C@@H](C=C(CO)C[C@]3(O)C(=O)C(C)=C[C@@H]23)[C@@H]2C(C)(C)[C@]12OC(=O)CCC` [PdBu, Phorbol-12,13-dibutyrate], in the assay on Aß, the “change in Aß” value was “increase in Aß”.
For “Linoleic alcohol cyclopropanated [BR-105]”, the “effect on PKC” value on purified PKC is “little or no effect”.
Turning to “Linolenyl alcohol cyclpropanated [BR-104]”, the “effect on PKC” value at purified PKC was “little or no effect”.
As for “Soluble Aß oligomer: soluble >100 kDa oligomers (amylospheroids) prepared from synthetic Aß1-42 by the method of Noguchi et al.”, in the assay on PKC-ε (500 nM, 24 hrs, five AC cases), the “PKC-ε in age-matched control (AC) skin fibroblasts” value is reported as “decreases”. Further, the “PKC-ε in AD skin fibroblasts” value in the assay on PKC-ε (500 nM, 24 hrs, five AD cases) is reported as “did not show decrease in expression”. Further, in the assay on PKC-ε (untreated cells 1.4), the “AC-AD ratio of normalized PKC-ε in treated cells” value is on record as approximately 1.
In the case of “Vernolic acid cyclopropanated methyl ester [BR-109]”, the “concentrations at which PKC was inhibited” value on purified PKC was “above 1 μM”.
In the case of epoxystearic acid [BR-116], on purified PKC, the “effect on PKC” value was “little or no effect”.

What is called EC50 is the midpoint of the concentration-response curve.
